Assay [1] concerns B.subtilis ATCC 6633 HPR022. Nature of the assay: Antibacterial activity (MIC), type strains. Format: cell-based. To be noted: Bacillus subtilis, ATCC6633; type strain B.subtilis ATCC 6633 HPR022; 10^6/ml of colony forming bacteria. Here is the method:
(§1) Antibacterial activities (minimum inhibitory concentration: MIC) were determined according to the standard method of the Japan Society of Chemotherapy [Chemotherapy, Vol. 29, p.76 (1981)] by using type strains and strains isolated from patients with infectious disease (including clinical isolates and atypical acid-fast bacteria), and applying 10^6/ml of colony forming bacteria. Linezolid was used as the reference compound [a compound described in Journal of Medicinal Chemistry, Vol. 39, p.673 (1996), hereinafter referred to as "reference compound"].

For a further assay, the system named is S.aureus MS353 HPC017. Nature of the assay: Antibacterial activity (MIC), type strains. The assay is classed as cell-based. The settings on record: Staphylococcus aureus, MS353HPC017. Here is the method:
as §1

A further assay has as its system S.aureus Smith HPC023. As to the kind of experiment: Antibacterial activity (MIC), type strains. Format: cell-based. The settings on record: Staphylococcus aureus. Here is the method:
as §1

The next assay relates to MRSA HPC 1336. Nature of the assay: Antibacterial activity (MIC), clinical isolates. The assay is classed as cell-based, Methicillin-resistant Staphylococcus aureus. The settings on record: Staphylococcus aureus. Here is the method: as §1
The next assay deals with MRSA HPC 432. As to the kind of experiment: Antibacterial activity (MIC), clinical isolates. The assay is classed as cell-based, Methicillin-resistant Staphylococcus aureus. The settings on record: Staphylococcus aureus. Here is the method:
as §1

The next assay deals with E.faecalis HPC 1321. Nature of the assay: Antibacterial activity (MIC), clinical isolates. The assay is classed as cell-based. The settings on record: Enterococcus faecalis, HPC1321. Here is the method:
as §1

In the next assay the test system is E.faecium HPC 1322. As to the kind of experiment: Antibacterial activity (MIC), clinical isolates. The assay is classed as cell-based. To be noted: Enterococcus faecium, HPC1322. Here is the method:
as §1

Another assay deals with S.epidermidis HPC 1728. As to the kind of experiment: Antibacterial activity (MIC), clinical isolates. The assay is classed as cell-based. To be noted: Staphylococcus epidermidis, HPC1728. Here is the method: as §1
In the next assay the test system is M.avium 20092. As to the kind of experiment: Antibacterial activity (MIC), atypical acid-fast bacteria. The assay is classed as cell-based. The settings on record: Mycobacterium avium, 10^6/ml of colony forming bacteria. Here is the method:
as §1

The subject of a further assay is M.avium 20096. The description is as above. The assay is classed as cell-based. To be noted: Mycobacterium avium, 10^6/ml of colony forming bacteria. Here is the method:
as §1

Another assay concerns M.intracellulare 20067. The assay is described as above. The assay is classed as cell-based. The settings on record: Mycobacterium intracellulare, 10^6/ml of colony forming bacteria. Here is the method: as §1
The subject of the next assay is M.intracellulare 20073. The description is as above. The assay is classed as cell-based. The settings on record: Mycobacterium intracellulare, 10^6/ml of colony forming bacteria. Here is the method: as §1
Setting [2] is: type strain S.aureus MS353 HPC017, 10^6/ml of colony forming bacteria, read-out: MIC.
[3] abbreviates: type strain S.aureus Smith HPC023, 10^6/ml of colony forming bacteria, read-out: MIC.
Setting [4] is: clinical isolate MRSA HPC 1336, 10^6/ml of colony forming bacteria, read-out: MIC.
The mark [5] stands for this setting: clinical isolate MRSA HPC 432, 10^6/ml of colony forming bacteria, read-out: MIC.
The mark [6] stands for this setting: clinical isolate E.faecalis HPC 1321, 10^6/ml of colony forming bacteria, read-out: MIC.
[7] abbreviates: clinical isolate E.faecium HPC 1322, 10^6/ml of colony forming bacteria, read-out: MIC.
[8] abbreviates: clinical isolate S.epidermidis HPC 1728, 10^6/ml of colony forming bacteria, read-out: MIC.

Structures are written as SMILES. ≈ marks a conversion by molar mass, not a printed value. Read-outs that look alike come from different tables or passages of the source.

As to `COC(=S)NC[C@H]1CN(c2ccc(N3CCSCC3)c(F)c2)C(=O)O1` [Example 1, O-Methyl (S)-N-[3-[3-fluoro-4-(thiomorpholin-4-yl)phenyl]-2-oxooxazolidin-5-yl]methylthiocarbamate], the minimal inhibitory concentration (MIC) in [1] was found to be 0.39 µg/mL (≈ 1.01 µM); with S.aureus MS353 HPC017 (setting [2]) it was 0.78 µg/mL (≈ 2.02 µM); with S.aureus Smith HPC023 (setting [3]), 1.56 µg/mL (≈ 4.05 µM); with MRSA HPC 1336 (setting [4]), 0.78 µg/mL (≈ 2.02 µM); in the assay with MRSA HPC 432 (setting [5]) it was 0.78 µg/mL (≈ 2.02 µM); in the assay on E.faecalis HPC 1321 (setting [6]), 0.78 µg/mL (≈ 2.02 µM). Also, the MIC was 0.78 µg/mL (≈ 2.02 µM) in the assay on E.faecium HPC 1322 (setting [7]); 0.78 µg/mL (≈ 2.02 µM) in the assay with S.epidermidis HPC 1728 (setting [8]); 0.39 µg/mL (≈ 1.01 µM) in the assay on M.avium 20092; 0.39 µg/mL (≈ 1.01 µM) in the assay on M.avium 20096; 0.39 µg/mL (≈ 1.01 µM) in the assay with M.intracellulare 20067; 0.39 µg/mL (≈ 1.01 µM) in the assay with M.intracellulare 20073.
For `COC(=S)NC[C@H]1CN(c2ccc(N3CC[S+]([O-])CC3)c(F)c2)C(=O)O1` [Example 2], the MIC worked out at 0.39 µg/mL (≈ 0.971 µM) in [1]; 0.78 µg/mL (≈ 1.94 µM) with S.aureus MS353 HPC017 (setting [2]); 0.78 µg/mL (≈ 1.94 µM) with S.aureus Smith HPC023 (setting [3]); 0.78 µg/mL (≈ 1.94 µM) with MRSA HPC 1336 (setting [4]); 0.78 µg/mL (≈ 1.94 µM) in the assay with MRSA HPC 432 (setting [5]); 0.39 µg/mL (≈ 0.971 µM) in the assay with E.faecalis HPC 1321 (setting [6]). The MIC in the assay with E.faecium HPC 1322 (setting [7]) amounted to 0.39 µg/mL (≈ 0.971 µM); with S.epidermidis HPC 1728 (setting [8]), 0.78 µg/mL (≈ 1.94 µM); in the assay with M.avium 20092, 3.13 µg/mL (≈ 7.8 µM); against M.avium 20096, 3.13 µg/mL (≈ 7.8 µM); against M.intracellulare 20067, 6.25 µg/mL (≈ 15.6 µM); with M.intracellulare 20073, 6.25 µg/mL (≈ 15.6 µM).
With `COC(=S)NC[C@H]1CN(c2ccc(N3CCS(=O)(=O)CC3)c(F)c2)C(=O)O1` [Example 3], the MIC amounted to 0.39 µg/mL (≈ 0.934 µM) in assay [1]; 0.78 µg/mL (≈ 1.87 µM) with S.aureus MS353 HPC017 (setting [2]); 0.78 µg/mL (≈ 1.87 µM) with S.aureus Smith HPC023 (setting [3]); 0.78 µg/mL (≈ 1.87 µM) with MRSA HPC 1336 (setting [4]); 0.78 µg/mL (≈ 1.87 µM) in the assay on MRSA HPC 432 (setting [5]); 0.39 µg/mL (≈ 0.934 µM) with E.faecalis HPC 1321 (setting [6]). Besides, the MIC was determined as 0.39 µg/mL (≈ 0.934 µM) in the assay with E.faecium HPC 1322 (setting [7]); 0.39 µg/mL (≈ 0.934 µM) in the assay with S.epidermidis HPC 1728 (setting [8]); 3.13 µg/mL (≈ 7.5 µM) in the assay with M.avium 20092; 3.13 µg/mL (≈ 7.5 µM) against M.avium 20096; 3.13 µg/mL (≈ 7.5 µM) against M.intracellulare 20067; 3.13 µg/mL (≈ 7.5 µM) against M.intracellulare 20073.
As for `COC(=S)NC[C@H]1CN(c2ccc(N3CCCC3)c(F)c2)C(=O)O1` [Example 4], the MIC (in assay [1]; with S.aureus MS353 HPC017 (setting [2]); with S.aureus Smith HPC023 (setting [3]); with MRSA HPC 1336 (setting [4]); in the assay on MRSA HPC 432 (setting [5]); in the assay on E.faecalis HPC 1321 (setting [6])) was 0.39 µg/mL (≈ 1.1 µM) throughout. The MIC in the assay with E.faecium HPC 1322 (setting [7]) worked out at 0.39 µg/mL (≈ 1.1 µM); with S.epidermidis HPC 1728 (setting [8]) it was 0.39 µg/mL (≈ 1.1 µM); with M.avium 20092, 1.56 µg/mL (≈ 4.41 µM); against M.avium 20096 it was 1.56 µg/mL (≈ 4.41 µM); in the assay with M.intracellulare 20067 it was 1.56 µg/mL (≈ 4.41 µM); in the assay on M.intracellulare 20073, 0.78 µg/mL (≈ 2.21 µM).
`CC(=O)NC[C@H]1CN(c2ccc(N3CCOCC3)c(F)c2)C(=O)O1` [Reference compound, Linezolid, reference compound]: the MIC is 0.78 µg/mL (≈ 2.31 µM) in assay [1]; 3.13 µg/mL (≈ 9.28 µM) in the assay with S.aureus MS353 HPC017; 3.13 µg/mL (≈ 9.28 µM) in the assay with S.aureus Smith HPC023; 3.13 µg/mL (≈ 9.28 µM) against MRSA HPC 1336 (MRSA); 3.13 µg/mL (≈ 9.28 µM) with MRSA HPC 432 (MRSA); 1.56 µg/mL (≈ 4.62 µM) against E.faecalis HPC 1321. Further, the MIC is 1.56 µg/mL (≈ 4.62 µM) in the assay with E.faecium HPC 1322; 3.13 µg/mL (≈ 9.28 µM) against S.epidermidis HPC 1728; 25 µg/mL (≈ 74.1 µM) against M.avium 20092; 50 µg/mL (≈ 148 µM) in the assay on M.avium 20096; 12.5 µg/mL (≈ 37.1 µM) against M.intracellulare 20067; 6.25 µg/mL (≈ 18.5 µM) against M.intracellulare 20073.

(Values after patent EP1130016A1, “THIOCARBAMIC ACID DERIVATIVES” (HOKURIKU SEIYAKU CO., LTD., priority 1998, dated 2000).)
